What is called IC50 is the concentration needed to halve the response being measured.

In the experiment the target is GCN2 (Homo sapiens (Human), UniProt Q9P2K8). The experiment in a line: GCN2 Biochemical Assay (TR-FRET, GFP-eIF2S1 substrate phosphorylation). The note with it: read-out: IC50 (GCN2 Inhibitory Activity). In short, it runs like this: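 TR-FRET readout (Ex 340, Em 490/520 nm) after 2–3 h with Tb-labelled phospho-eIF2S1 antibody in stop mix, following a 70 min room-temperature kinase step. Reaction: in-house GCN2, GFP-eIF2S1, ATP, tRNA in Tris pH 7.5 (2× stocks 1.6 nM, 50 nM, 0.2 mM); compounds tested at 10 concentrations, with a phospho-substrate artifact counter-plate.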

A value given as a limit tells only on which side of the number the result lay.

GCN2, sequence (Q9P2K8 whole entry): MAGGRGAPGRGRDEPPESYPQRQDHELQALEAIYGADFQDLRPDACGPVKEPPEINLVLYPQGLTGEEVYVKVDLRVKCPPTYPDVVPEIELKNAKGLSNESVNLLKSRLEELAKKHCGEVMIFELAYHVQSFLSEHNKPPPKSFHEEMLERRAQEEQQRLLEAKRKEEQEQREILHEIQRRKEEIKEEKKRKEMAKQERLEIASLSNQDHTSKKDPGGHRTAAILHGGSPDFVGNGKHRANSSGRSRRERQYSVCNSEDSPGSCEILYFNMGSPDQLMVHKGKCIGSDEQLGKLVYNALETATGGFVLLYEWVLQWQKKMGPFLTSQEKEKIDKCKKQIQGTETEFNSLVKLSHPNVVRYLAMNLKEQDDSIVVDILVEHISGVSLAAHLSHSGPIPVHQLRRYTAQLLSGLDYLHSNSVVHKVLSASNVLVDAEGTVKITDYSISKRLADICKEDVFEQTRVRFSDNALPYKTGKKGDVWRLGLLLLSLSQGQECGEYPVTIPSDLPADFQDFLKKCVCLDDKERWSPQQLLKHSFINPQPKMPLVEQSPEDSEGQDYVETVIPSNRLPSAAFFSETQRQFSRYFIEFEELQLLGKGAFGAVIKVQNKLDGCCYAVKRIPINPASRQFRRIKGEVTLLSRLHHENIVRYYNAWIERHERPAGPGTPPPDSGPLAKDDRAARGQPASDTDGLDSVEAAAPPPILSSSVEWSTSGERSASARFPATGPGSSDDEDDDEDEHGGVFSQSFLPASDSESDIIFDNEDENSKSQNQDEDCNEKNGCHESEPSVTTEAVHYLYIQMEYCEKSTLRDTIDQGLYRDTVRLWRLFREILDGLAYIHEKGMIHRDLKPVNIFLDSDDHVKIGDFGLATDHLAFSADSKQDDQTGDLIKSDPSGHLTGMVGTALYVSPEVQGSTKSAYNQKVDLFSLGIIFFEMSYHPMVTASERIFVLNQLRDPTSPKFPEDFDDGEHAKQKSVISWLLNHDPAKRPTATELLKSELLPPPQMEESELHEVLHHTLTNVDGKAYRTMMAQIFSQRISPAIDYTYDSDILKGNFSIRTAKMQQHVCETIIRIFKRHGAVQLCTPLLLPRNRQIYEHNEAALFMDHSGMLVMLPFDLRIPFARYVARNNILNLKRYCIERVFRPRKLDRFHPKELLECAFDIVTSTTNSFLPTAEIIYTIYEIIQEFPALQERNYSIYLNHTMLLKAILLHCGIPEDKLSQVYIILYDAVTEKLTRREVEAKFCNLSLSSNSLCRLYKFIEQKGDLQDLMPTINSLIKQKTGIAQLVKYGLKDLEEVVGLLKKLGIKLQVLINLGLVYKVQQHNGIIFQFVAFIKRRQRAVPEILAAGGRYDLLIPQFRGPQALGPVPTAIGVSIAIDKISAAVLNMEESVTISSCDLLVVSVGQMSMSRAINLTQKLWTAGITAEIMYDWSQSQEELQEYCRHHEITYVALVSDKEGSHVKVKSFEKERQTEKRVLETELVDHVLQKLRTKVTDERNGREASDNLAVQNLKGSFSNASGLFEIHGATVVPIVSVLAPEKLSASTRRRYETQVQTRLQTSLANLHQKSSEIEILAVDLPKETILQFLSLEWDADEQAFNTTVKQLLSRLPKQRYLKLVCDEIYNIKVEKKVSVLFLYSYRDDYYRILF

Consider `Cc1cnc(Nc2cc(C)n(C)n2)nc1-c1c[nH]c2c(N3Cc4ccc(NC(=O)C5CC5)cc4C3=O)cccc12` [Example 291, N-(2-(3-(2-((1,5-dimethyl-1H-pyrazol-3-yl)amino)-5-methylpyrimidin-4-yl)-1H-indol-7-yl)-3-oxoisoindolin-5-yl)cyclopropanecarboxamide], for which the IC50 is less than 0.01 µM.

On to `Cc1cnc(Nc2cc(C)n(C)n2)nc1-c1c[nH]c2c(N3Cc4c(cccc4-c4cccnc4F)C3=O)cccc12` [Example 431, 2-(3-(2-((1,5-dimethyl-1H-pyrazol-3-yl)amino)-5-methylpyrimidin-4-yl)-1H-indol-7-yl)-4-(2-fluoropyridin-3-yl)isoindolin-1-one], for which the IC50 was less than 0.01 µM.

In the case of `Cc1cnc(Nc2cc(C)n(C)n2)nc1-c1c[nH]c2c(N3Cc4c(cccc4-c4ccccc4)C3=O)cccc12` [Example 377, 2-(3-(2-((1,5-dimethyl-1H-pyrazol-3-yl)amino)-5-methylpyrimidin-4-yl)-1H-indol-7-yl)-4-phenylisoindolin-1-one], the 50% inhibitory concentration (IC50) was less than 0.01 µM.

As for `CCCCNc1nccc(O[C@H]2CCN(CC(=O)Nc3cccc4c(-c5nc(Nc6cc(C)n(C)n6)ncc5C)c[nH]c34)C2)n1` [Example 205, (S)-2-(3-((2-(butylamino)pyrimidin-4-yl)oxy)pyrrolidin-1-yl)-N-(3-(2-((1,5-dimethyl-1H-pyrazol-3-yl)amino)-5-methylpyrimidin-4-yl)-1H-indol-7-yl)acetamide], the IC50 was less than 0.01 µM.

Consider `Cc1cnc(Nc2cc(C)n(C)n2)nc1-c1c[nH]c2c(NC(=O)CN3CC[C@H](Oc4cc(-c5cc(Cl)ccc5F)nc(N)n4)C3)cccc12` [Example 98, (S)-2-(3-((2-amino-6-(5-chloro-2-fluorophenyl)pyrimidin-4-yl)oxy)pyrrolidin-1-yl)-N-(3-(2-((1,5-dimethyl-1H-pyrazol-3-yl)amino)-5-methylpyrimidin-4-yl)-1H-indol-7-yl)acetamide], for which the 50% inhibitory concentration (IC50) lay within 0.1 to 1 µM.

Take `Cc1cnc(Nc2cc(C)n(C)n2)nc1-c1c[nH]c2c(NC(=O)CN3CC[C@H](Oc4ccnc(N5CCCCC5)n4)C3)cccc12` [Example 223, (S)-N-(3-(2-((1,5-dimethyl-1H-pyrazol-3-yl)amino)-5-methylpyrimidin-4-yl)-1H-indol-7-yl)-2-(3-((2-(piperidin-1-yl)pyrimidin-4-yl)oxy)pyrrolidin-1-yl)acetamide]: the concentration for half-maximal inhibition (IC50) was 0.01 to 0.1 µM.

As for `C/C(=C\c1cccc2c1CN(c1cccc3c(-c4nc(Nc5cc(C)n(C)n5)ncc4C)c[nH]c13)C2=O)C(N)=O` [Example 361, (E)-3-(2-(3-(2-((1,5-dimethyl-1H-pyrazol-3-yl)amino)-5-methylpyrimidin-4-yl)-1H-indol-7-yl)-1-oxoisoindolin-4-yl)-2-methylacrylamide], the IC50 is less than 0.01 µM.

Take `Cc1cnc(Nc2cc(C)n(C)n2)nc1-c1c[nH]c2c(NC(=O)CN3CC[C@H](Oc4ncc(F)c(N5CCOCC5)n4)C3)cccc12` [Example 188, (S)-N-(3-(2-((1,5-dimethyl-1H-pyrazol-3-yl)amino)-5-methylpyrimidin-4-yl)-1H-indol-7-yl)-2-(3-((5-fluoro-4-morpholinopyrimidin-2-yl)oxy)pyrrolidin-1-yl)acetamide]: the IC50 is less than 0.01 µM.

Take `Cc1cnc(Nc2cc(C)n(C)n2)nc1-c1c[nH]c2c(N3Cc4cc(C5=CCNCC5)cnc4C3=O)cccc12` [Example 498, 6-(3-(2-((1,5-dimethyl-1H-pyrazol-3-yl)amino)-5-methylpyrimidin-4-yl)-1H-indol-7-yl)-3-(1,2,3,6-tetrahydropyridin-4-yl)-5,6-dihydro-7H-pyrrolo[3,4-b]pyridin-7-one]: the IC50 is less than 0.01 µM.

`Cc1cnc(Nc2cc(C)n(C)n2)nc1-c1c[nH]c2c(NC(=O)CN3CC[C@H](Oc4nc(NCC5CC5)ncc4F)C3)cccc12` [Example 229, (S)-2-(3-((2-((cyclopropylmethyl)amino)-5-fluoropyrimidin-4-yl)oxy)pyrrolidin-1-yl)-N-(3-(2-((1,5-dimethyl-1H-pyrazol-3-yl)amino)-5-methylpyrimidin-4-yl)-1H-indol-7-yl)acetamide]: the IC50 was in the range of 0.01 to 0.1 µM.

For `Cc1cnc(Nc2cc(C)n(C)n2)nc1-c1c[nH]c2c(NC(=O)CN3CC[C@H](Oc4ccnc(N5CCCC5)n4)C3)cccc12` [Example 222, (S)-N-(3-(2-((1,5-dimethyl-1H-pyrazol-3-yl)amino)-5-methylpyrimidin-4-yl)-1H-indol-7-yl)-2-(3-((2-(pyrrolidin-t-yl)pyrimidin-4-yl)oxy)pyrrolidin-1-yl)acetamide], the IC50 is 0.01 to 0.1 µM.

As for `Cc1cnc(Nc2cc(C)n(C)n2)nc1-c1c[nH]c2c(NC(=O)C(C)N3CCCC3)cccc12` (centres unmarked) [Example 22, N-(3-(2-((1,5-dimethyl-1H-pyrazol-3-yl)amino)-5-methylpyrimidin-4-yl)-1H-indol-7-yl)-2-(pyrrolidin-1-yl)propanamide], the half-inhibitory concentration (IC50) was in the range of 0.1 to 1 µM.

Regarding `Cc1cnc(Nc2cc(C)n(C)n2)nc1-c1c[nH]c2c(NC(=O)CN3CC[C@H](Oc4cncc(N)n4)C3)cccc12` [Example 92], the IC50 is less than 0.01 µM.

Regarding `Cc1cnc(Nc2cc(C)n(C)n2)nc1-c1c[nH]c2c(NC(=O)CN3CC[C@H](Oc4ccnc(NC5CC5)n4)C3)c(F)ccc12` [Example 1, (S)-2-(3-((2-(cyclopropylamino)pyrimidin-4-yl)oxy)pyrrolidin-1-yl)-N-(3-(2-((1,5-dimethyl-1H-pyrazol-3-yl)amino)-5-methylpyrimidin-4-yl)-6-fluoro-1H-indol-7-yl)acetamide], the IC50 was less than 0.01 µM.

For the compound `Cc1cnc(Nc2cc(C)n(C)n2)nc1-c1c[nH]c2c(N3Cc4cccc(C5=CCOCC5)c4C3=O)cccc12` [Example 385, 7-(3,6-dihydro-2H-pyran-4-yl)-2-(3-(2-((1,5-dimethyl-1H-pyrazol-3-yl)amino)-5-methylpyrimidin-4-yl)-1H-indol-7-yl)isoindolin-1-one], the 50% inhibitory concentration (IC50) is 0.01 to 0.1 µM.

Turning to `Cc1cnc(Nc2cc(C)n(C)n2)nc1-c1c[nH]c2c(N3Cc4c(ccnc4Br)C3=O)cccc12` [Example 290, 4-bromo-2-(3-(2-((1,5-dimethyl-1H-pyrazol-3-yl)amino)-5-methylpyrimidin-4-yl)-1H-indol-7-yl)-2,3-dihydro-1H-pyrrolo[3,4-c]pyridin-1-one], the half-maximal inhibitory concentration (IC50) is less than 0.01 µM.

Turning to `Cc1cnc(Nc2cc(C)n(C)n2)nc1-c1c[nH]c2c(NC(=O)CN3CC[C@H](Oc4cc(NCCc5ccccc5)ncn4)C3)cccc12` [Example 150, (S)-N-(3-(2-((1,5-dimethyl-1H-pyrazol-3-yl)amino)-5-methylpyrimidin-4-yl)-1H-indol-7-yl)-2-(3-((6-(phenethylamino)pyrimidin-4-yl)oxy)pyrrolidin-1-yl)acetamide], the IC50 fell in the range of 0.01 to 0.1 µM.

In the case of `Cc1nc(C(=O)Nc2cccc3c2CN(c2cccc4c(-c5nc(Nc6cc(C)n(C)n6)ncc5C)c[nH]c24)C3=O)co1` [Example 322, N-(2-(3-(2-((1,5-dimethyl-1H-pyrazol-3-yl)amino)-5-methylpyrimidin-4-yl)-1H-indol-7-yl)-1-oxoisoindolin-4-yl)-2-methyloxazole-4-carboxamide], the IC50 is less than 0.01 µM.

`Cc1cc(-c2ccc(F)c3c2CN(c2cccc4c(-c5nc(Nc6cc(C)n(C)n6)ncc5C)c[nH]c24)C3=O)ccn1` [Example 454, 2-(3-(2-((1,5-dimethyl-1H-pyrazol-3-yl)amino)-5-methylpyrimidin-4-yl)-1H-indol-7-yl)-7-fluoro-4-(2-methylpyridin-4-yl)isoindolin-1-one]: the concentration for half-maximal inhibition (IC50) was less than 0.01 µM.

For the compound `Cc1cnc(Nc2cc(C)n(C)n2)nc1-c1c[nH]c2c(NC(=O)CN3CC[C@H](Oc4ccc(-c5ccccc5)cc4)C3)cccc12` [Example 100, (S)-2-(3-([1,1′-biphenyl]-4-yloxy)pyrrolidin-1-yl)-N-(3-(2-((1,5-dimethyl-1H-pyrazol-3-yl)amino)-5-methylpyrimidin-4-yl)-1H-indol-7-yl)acetamide], the IC50 is 0.1 to 1 µM.

On to `Cc1cnc(Nc2cc(C)n(C)n2)nc1-c1c[nH]c2c(NC(=O)CN3CC[C@H](Oc4ccn(C)n4)C3)cccc12` [Example 105, (S)-N-(3-(2-((1,5-dimethyl-1H-pyrazol-3-yl)amino)-5-methylpyrimidin-4-yl)-1H-indol-7-yl)-2-(3-((1-methyl-1H-pyrazol-3-yl)oxy)pyrrolidin-1-yl)acetamide], for which the half-inhibitory concentration (IC50) is less than 0.01 µM.

In the case of `Cc1cnc(Nc2cc(C)n(C)n2)nc1-c1c[nH]c2c(NC(=O)CN3CC(O)C3)cccc12` [Example 26, N-(3-(2-((1,5-dimethyl-1H-pyrazol-3-yl)amino)-5-methylpyrimidin-4-yl)-1H-indol-7-yl)-2-(3-hydroxyazetidin-1-yl)acetamide], the IC50 is 0.01 to 0.1 µM.

As for `Cc1cnc(Nc2cc(C)n(C)n2)nc1-c1c[nH]c2c(N3Cc4cccc(-c5ccccc5)c4C3=O)cccc12` [Example 382, 2-(3-(2-((1,5-dimethyl-1H-pyrazol-3-yl)amino)-5-methylpyrimidin-4-yl)-1H-indol-7-yl)-7-phenylisoindolin-1-one], the IC50 was in the range of 0.01 to 0.1 µM.

On to `Cc1cncc(-c2nccc3c2CN(c2cccc4c(-c5nc(Nc6cc(C)n(C)n6)ncc5C)c[nH]c24)C3=O)c1` [Example 505, 2-(3-(2-((1,5-dimethyl-1H-pyrazol-3-yl)amino)-5-methylpyrimidin-4-yl)-1H-indol-7-yl)-4-(5-methylpyridin-3-yl)-2,3-dihydro-1H-pyrrolo[3,4-c]pyridin-1-one], for which the IC50 was less than 0.01 µM.

In the case of `Cc1cnc(Nc2cc(C)n(C)n2)nc1-c1c[nH]c2c(N3Cc4c(NC(=O)[C@H]5CCNC5)cccc4C3=O)cccc12` [Example 316, (S)-N-(2-(3-(2-((1,5-dimethyl-1H-pyrazol-3-yl)amino)-5-methylpyrimidin-4-yl)-1H-indol-7-yl)-1-oxoisoindolin-4-yl)pyrrolidine-3-carboxamide], the IC50 lay within 0.01 to 0.1 µM.

For `Cc1cnc(Nc2cc(C)n(C)n2)nc1-c1c[nH]c2c(NC(=O)CN3CC[C@H](Oc4nc(N(C)C)ncc4F)C3)cccc12` [Example 231, (S)-N-(3-(2-((1,5-dimethyl-1H-pyrazol-3-yl)amino)-5-methylpyrimidin-4-yl)-1H-indol-7-yl)-2-(3-((2-(dimethylamino)-5-fluoropyrimidin-4-yl)oxy)pyrrolidin-1-yl)acetamide], the half-inhibitory concentration (IC50) lay in the range of 0.01 to 0.1 µM.

The record behind these values is patent US20240025884A1 (Dong-A ST Co., Ltd., priority 2022, published 2024).
